Data reported in patent US6737383B1, “Herbicidal oxadiazolidines” (priority 1999, dated 2004).

Experiments:
[1] = tested on: rice; test: Test B flood test rice; format: in vivo, Oryza sativa
Outline: (§1)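 Read-out is a visual response score from 0 (no effect) to 10 (complete control), assigned by comparison with untreated controls. Treatment was applied at the 2-leaf stage, and plants stayed in the greenhouse for twelve to sixteen days before scoring.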

[2] = tested on: cocklebur; test: Test B pre/postemergence cocklebur; format: in vivo, Xanthium strumarium
Outline: (§2)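 Herbicidal effect was estimated by eye on a ten-point control scale after plants spent twelve to sixteen days in a greenhouse following soil or foliar treatment. Foliar sprays targeted plants at one to four leaves; all doses were formulated in a non-phytotoxic solvent with surfactant.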

[3] = tested on: giant foxtail; test: Test B pre/postemergence giant foxtail; format: in vivo, Setaria faberii
Outline: as §2

[4] = tested on: wild oat; test: Test B pre/postemergence wild oat; format: in vivo, Avena fatua
Outline: as §2

[5] = tested on: soybean; test: Test B pre/postemergence soybean; format: in vivo, Glycine max
Outline: as §2

[6] = tested on: surinam grass; test: Test B pre/postemergence surinam grass; format: in vivo, Brachiaria decumbens
Outline: as §2

[7] = tested on: velvetleaf; test: Test B pre/postemergence velvetleaf; format: in vivo, Abutilon theophrasti
Outline: as §2

[8] = tested on: pigweed; test: Test B pre/postemergence pigweed; format: in vivo, Amaranthus retroflexus
Outline: as §2

[9] = tested on: rape; test: Test B pre/postemergence rape; format: in vivo, Brassica napus
Outline: as §2

[10] = tested on: corn; test: Test B pre/postemergence corn; format: in vivo, Zea mays
Outline: as §2

[11] = tested on: purple nutsedge; test: Test B pre/postemergence purple nutsedge; format: in vivo, Cyperus rotundus
Outline: as §2

[12] = tested on: wheat; test: Test B pre/postemergence wheat; format: in vivo, Triticum aestivum
Outline: as §2

[13] = tested on: duck salad; test: Test B flood test duck salad; format: in vivo, Heteranthera limosa
Outline: as §1

[14] = tested on: sugar beet; test: Test B pre/postemergence sugar beet; format: in vivo, Beta vulgaris
Outline: as §2

[15] = tested on: bedstraw; test: Test B pre/postemergence bedstraw; format: in vivo, Galium aparine
Outline: as §2

[16] = tested on: smallflower flatsedge; test: Test B flood test smallflower flatsedge; format: in vivo, Cyperus difformis
Outline: as §1

[17] = Postemergence, Rate 62 g/ha, scale 0 to 10, 0 is no effect, 10 is complete control
[18] = Rate 125 g/ha, Postemergence section (flood test species), scale 0 to 10, 0 no effect, 10 complete control
[19] = Rate 500 g/ha, listed under Postemergence (flood test species), scale 0 to 10, 0 no effect, 10 complete control
[20] = flood test, listed under Postemergence, Rate 250 g/ha, scale 0 to 10, 0 no effect, 10 complete control
[21] = Postemergence, Rate 250 g/ha, scale 0 to 10, 0 no effect, 10 complete control
[22] = Preemergence, Rate 62 g/ha, scale 0 to 10 (0 no effect, 10 complete control)
[23] = Preemergence, Rate 125 g/ha, scale 0 to 10 (0 no effect, 10 complete control)
[24] = Preemergence, Rate 250 g/ha, scale of 0 to 10 where 0 is no effect and 10 is complete control
[25] = Preemergence, Rate 500 g/ha, scale 0 (no effect) to 10 (complete control)
[26] = Rate 125 g/ha, Postemergence, scale 0 to 10, 0 no effect, 10 complete control
[27] = Rate 500 g/ha, Postemergence, scale 0 to 10, 0 no effect, 10 complete control

CC(C)N(C(=O)n1oc(=O)n(Cc2cccs2)c1=O)c1ccc(F)cc1 [Compound 80]
Rice plant response rating [1, 17]: 0 | Rice plant response rating [1, 18]: 0 | Rice plant response rating [1, 19]: 2 | Rice plant response rating [1, 20]: 0 | Cocklebur plant response rating [2, 17]: 0 | Cocklebur plant response rating [2, 21]: 0 | Cocklebur plant response rating [2, 22]: 0 | Plant response rating, Cocklebur [2, 23]: 0 | Plant response rating, Cocklebur [2, 24]: 0 | Cocklebur plant response rating [2, 25]: 0 | Cocklebur plant response rating [2, 26]: 0 | Cocklebur plant response rating [2, 27]: 1 | Giant foxtail plant response rating [3, 17]: 0 | Giant foxtail plant response rating [3, 21]: 3 | Giant foxtail plant response rating [3, 22]: 6 | Plant response rating, Giant foxtail [3, 23]: 8 | Plant response rating, Giant foxtail [3, 24]: 8 | Giant foxtail plant response rating [3, 25]: 9 | Giant foxtail plant response rating [3, 26]: 2 | Giant foxtail plant response rating [3, 27]: 7 | Wild oats plant response rating [4, 17]: 0 | Wild oats plant response rating [4, 21]: 0 | Wild oats plant response rating [4, 22]: 0 | Plant response rating, Wild oats [4, 23]: 2 | Plant response rating, Wild oats [4, 24]: 3 | Wild oats plant response rating [4, 25]: 5 | Wild oats plant response rating [4, 26]: 0 | Wild oats plant response rating [4, 27]: 0 | Soybean plant response rating [5, 17]: 0 | Soybean plant response rating [5, 21]: 1 | Soybean plant response rating [5, 22]: 0 | Plant response rating, Soybean [5, 23]: 0 | Plant response rating, Soybean [5, 24]: 0 | Soybean plant response rating [5, 25]: 0 | Soybean plant response rating [5, 26]: 1 | Soybean plant response rating [5, 27]: 2 | B. signalgrass plant response rating [6, 17]: 0 | B. signalgrass plant response rating [6, 21]: 0 | B. signalgrass plant response rating [6, 22]: 0 | Plant response rating, B. signalgrass [6, 23]: 0 | Plant response rating, B. signalgrass [6, 24]: 0 | B. signalgrass plant response rating [6, 25]: 4 | B. signalgrass plant response rating [6, 26]: 0 | B. signalgrass plant response rating ([6]; Rate 500 g/ha, Postemergence, scale of 0 to 10 where 0 is no effect and 10 is complete control): 0 | Velvetleaf plant response rating [7, 17]: 0 | Velvetleaf plant response rating [7, 21]: 0 | Velvetleaf plant response rating [7, 22]: 0 | Plant response rating, Velvetleaf [7, 23]: 0 | Plant response rating, Velvetleaf [7, 24]: 2 | Velvetleaf plant response rating [7, 25]: 3 | Velvetleaf plant response rating [7, 26]: 0 | Velvetleaf plant response rating [7, 27]: 0 | Redroot pigweed plant response rating [8, 17]: 2 | Redroot pigweed plant response rating [8, 21]: 4 | Plant response rating, Redroot pigweed [8, 23]: 7 | Plant response rating, Redroot pigweed [8, 24]: 7 | Redroot pigweed plant response rating [8, 25]: 7 | Redroot pigweed plant response rating [8, 26]: 3 | Redroot pigweed plant response rating [8, 27]: 4 | Rape plant response rating [9, 17]: 2 | Rape plant response rating [9, 21]: 3 | Rape plant response rating [9, 22]: 0 | Plant response rating, Rape [9, 23]: 3 | Plant response rating, Rape [9, 24]: 4 | Rape plant response rating [9, 25]: 5 | Rape plant response rating [9, 26]: 2 | Rape plant response rating [9, 27]: 3 | Corn plant response rating [10, 17]: 0 | Corn plant response rating [10, 21]: 0 | Corn plant response rating [10, 22]: 0 | Plant response rating, Corn [10, 23]: 0 | Plant response rating, Corn [10, 24]: 0 | Corn plant response rating [10, 25]: 0 | Corn plant response rating [10, 26]: 0 | Corn plant response rating [10, 27]: 0 | Nutsedge plant response rating [11, 17]: 0 | Nutsedge plant response rating [11, 21]: 0 | Nutsedge plant response rating [11, 22]: 0 | Plant response rating, Nutsedge [11, 23]: 0 | Plant response rating, Nutsedge [11, 24]: 0 | Nutsedge plant response rating [11, 25]: 0 | Nutsedge plant response rating [11, 26]: 0 | Nutsedge plant response rating [11, 27]: 0 | Wheat plant response rating [12, 17]: 0 | Wheat plant response rating [12, 21]: 0 | Wheat plant response rating [12, 22]: 0 | Plant response rating, Wheat [12, 23]: 0 | Plant response rating, Wheat [12, 24]: 0 | Wheat plant response rating [12, 25]: 0 | Wheat plant response rating [12, 26]: 0 | Wheat plant response rating [12, 27]: 0 | Ducksalad plant response rating [13, 17]: 0 | Ducksalad plant response rating [13, 18]: 0 | Ducksalad plant response rating [13, 19]: 2 | Ducksalad plant response rating [13, 20]: 0 | Sugarbeets plant response rating [14, 21]: 4 | Sugarbeets plant response rating [14, 22]: 0 | Plant response rating, Sugarbeets [14, 23]: 3 | Plant response rating, Sugarbeets [14, 24]: 4 | Sugarbeets plant response rating [14, 25]: 5 | Sugarbeets plant response rating [14, 26]: 3 | Sugarbeets plant response rating [14, 27]: 7 | Bedstraw plant response rating [15, 17]: 0 | Bedstraw plant response rating [15, 21]: 0 | Bedstraw plant response rating [15, 22]: 0 | Plant response rating, Bedstraw [15, 23]: 0 | Plant response rating, Bedstraw [15, 24]: 0 | Bedstraw plant response rating [15, 25]: 0 | Bedstraw plant response rating [15, 26]: 0 | Bedstraw plant response rating [15, 27]: 6 | S. Flatsedge plant response rating [16, 17]: 0 | S. Flatsedge plant response rating [16, 18]: 0 | S. Flatsedge plant response rating [16, 19]: 3 | S. Flatsedge plant response rating [16, 20]: 3
